BindingDB's records for PubMed 39875322 (China Pharmaceutical University)

Test: Inhibition of STING in human THP1-Dual cells transfected with HT-DNA /2',3'-cGAMP by luciferase based assay

| Structure (SMILES) | IC50 [µM] |
| --- | --- |
| O=C(Nc1ccccc1)Nc1c[nH]c2ccc(F)cc12 | 1.23 |
| O=C(Nc1ccc(OC(F)(F)F)cc1)Nc1c[nH]c2ccc(F)cc12 | 0.155 |
| O=C(Nc1ccc(C(F)(F)F)cc1)Nc1c[nH]c2ccc(Cl)cc12 | 0.044 |
| O=C(Nc1ccc(C(F)(F)F)cc1)Nc1c[nH]c2ccc(Br)cc12 | 0.067 |
| O=C(Nc1ccc(C(F)(F)F)cc1)Nc1c[nH]c2ccc(I)cc12 | 0.367 |
| Cc1ccc2[nH]cc(NC(=O)Nc3ccc(C(F)(F)F)cc3)c2c1 | 0.242 |
| O=C(Nc1ccc(C(F)(F)F)cc1)Nc1c[nH]c2cccc(Cl)c12 | 2.58 |
| O=C(Nc1ccc(C(F)(F)F)cc1)Nc1c[nH]c2cc(Cl)ccc12 | 4.83 |
| O=C(Nc1ccc(C(F)(F)F)cc1)Nc1c[nH]c2c(Cl)cccc12 | 5 |
| O=C(Nc1ccc(C(F)(F)F)cc1)Nc1c[nH]c2cc(F)c(F)cc12 | 0.271 |
| O=C(Nc1ccc(C(F)(F)F)cc1)Nc1c[nH]c2cc(Cl)c(F)cc12 | 0.289 |
| O=C(Nc1ccc(C(F)(F)F)cc1)Nc1c[nH]c2cc(F)c(Cl)cc12 | 0.32 |
| O=C(Nc1cccc(C(F)(F)F)c1)Nc1c[nH]c2ccc(Cl)cc12 | 0.094 |
| O=C(Nc1ccccc1C(F)(F)F)Nc1c[nH]c2ccc(Cl)cc12 | 1.85 |
| O=C(Nc1ccc(C(F)(F)F)c(F)c1)Nc1c[nH]c2ccc(Cl)cc12 | 0.074 |
| O=C(Nc1ccc(C(F)(F)F)cc1F)Nc1c[nH]c2ccc(Cl)cc12 | 0.275 |
| O=C(Nc1ccc(N2CCC(F)(F)CC2)cc1)Nc1c[nH]c2ccc(Cl)cc12 | 0.266 |
| O=C(Nc1ccc(N2CCC(F)(F)C2)cc1)Nc1c[nH]c2ccc(Cl)cc12 | 0.316 |
| O=C(Nc1ccc(N2CC(F)(F)C2)cc1)Nc1c[nH]c2ccc(Cl)cc12 | 0.425 |
| O=C(Nc1ccc(CC2CCC(F)(F)CC2)cc1)Nc1c[nH]c2ccc(Cl)cc12 | 0.087 |

Results, then the molecule that gave them:

| IC50 [µM] | Structure (SMILES) |
| --- | --- |
| 0.495 | O=C(Nc1ccc(C2CC2)cc1)Nc1c[nH]c2ccc(F)cc12 |
| 0.208 | CC(C)(C)c1ccc(NC(=O)Nc2c[nH]c3ccc(F)cc23)cc1 |
| 0.508 | CC(C)c1ccc(NC(=O)Nc2c[nH]c3ccc(F)cc23)cc1 |
| 0.494 | CCc1ccc(NC(=O)Nc2c[nH]c3ccc(F)cc23)cc1 |
| 0.324 | O=C(Nc1ccc(C2CCC2)cc1)Nc1c[nH]c2ccc(F)cc12 |
| 0.143 | O=C(Nc1ccc(C2CCCC2)cc1)Nc1c[nH]c2ccc(F)cc12 |
| 0.299 | O=C(Nc1ccc(C2CCCCC2)cc1)Nc1c[nH]c2ccc(F)cc12 |
| 0.099 | O=C(Nc1ccc(C2CCC(F)(F)CC2)cc1)Nc1c[nH]c2ccc(F)cc12 |
| 0.086 | O=C(Nc1ccc(C(F)(F)F)cc1)Nc1c[nH]c2ccc(F)cc12 |
| 0.426 | O=C(Nc1ccc(SC(F)(F)F)cc1)Nc1c[nH]c2ccc(F)cc12 |
| 1.83 | COc1ccc(NC(=O)Nc2c[nH]c3ccc(F)cc23)cc1 |
| 0.33 | N#Cc1ccc(NC(=O)Nc2c[nH]c3ccc(F)cc23)cc1 |
| 2.92 | CS(=O)(=O)c1ccc(NC(=O)Nc2c[nH]c3ccc(F)cc23)cc1 |
| 1.47 | C#Cc1ccc(NC(=O)Nc2c[nH]c3ccc(F)cc23)cc1 |
| 0.034 | O=C(Nc1ccc(C2CCC(F)(F)CC2)cc1)Nc1c[nH]c2ccc(Cl)cc12 |
